Molecular target: SARS2 protease (Severe acute respiratory syndrome coronavirus 2, UniProt P0DTD1)
Assay: SARS-CoV-2 protease inhibition assay (SARS2 FRET protease assay)
Format: biochemical
Conditions: IC50 (μM)

| SMILES | IC50 [nM] |
| --- | --- |
| CC(C)C[C@H](NC(=O)OC1CCCC1Cc1ccccc1)C(=O)N[C@@H](C[C@@H]1CCNC1=O)C(=O)CCl (stereo partly drawn) [Compound C199, 2-Benzylcyclopentyl ((S)-1-(((S)-4-chloro-3-oxo-1-((S)-2-oxopyrrolidin-3-yl)butan-2-yl)amino)-4-methyl-1-oxopentan-2-yl)carbamate] | 196 |

Same assay, conditions: SARS-CoV-2 protease 25 nM, FRET, peptide substrate 1.3 μM, 30 minutes at 30° C., compounds 20 μM to 1.0 nM; read-out: IC50

| SMILES | IC50 [nM] |
| --- | --- |
| O=C(N[C@@H](CC1CCCCC1)C(=O)N[C@@H](C[C@@H]1CCNC1=O)C(=O)C(=O)NC1CC1)OCc1cccc(Cl)c1 [Compound C173] | 1430 |
| CCCC[C@H](NC(=O)OC(c1ccccc1)C(C)(C)c1cccc(Cl)c1)C(=O)N[C@@H](CC1CCNC1=O)C(=O)C(=O)NC1CC1 (stereo partly drawn) [Compound C174, 2-(3-Chlorophenyl)-2-methyl-1-phenylpropyl ((S)-1-(((S)-4-(cyclopropylamino)-3,4-dioxo-1-((S)-2-oxopyrrolidin-3-yl)butan-2-yl)amino)-1-oxohexan-2-yl) carbamate] | 8.2 |
| O=C(N[C@@H](CC1CCCCC1)C(=O)NC(CC1CC2(CCOCC2)NC1=O)C(=O)C(=O)NC1CC1)OCc1cccc(Cl)c1 (stereo partly drawn) [Compound C176, 3-Chlorobenzyl ((2S)-3-cyclohexyl-1-((4-(cyclopropylamino)-3,4-dioxo-1-(2-oxo-8-oxa-1-azaspiro[4.5]decan-3-yl)butan-2-yl)amino)-1-oxopropan-2-yl)carbamate] | 1570 |
| CS(=O)(=O)N1CCC2(CC1)CC(CC(NC(=O)[C@H](CC1CCCCC1)NC(=O)OC1CCCC1Cc1cccc(Cl)c1)C(=O)C(=O)NC1CC1)C(=O)N2 (stereo partly drawn) [Compound C177, 2-(3-chlorobenzyl)cyclopentyl ((2S)-3-cyclohexyl-1-((4-(cyclopropylamino)-1-(8-(methylsulfonyl)-2-oxo-1,8-diazaspiro[4.5]decan-3-yl)-3,4-dioxobutan-2-yl)amino)-1-oxopropan-2-yl)carbamate] | 4390 |
| CS(=O)(=O)N1CCC2(CC1)CC(C[C@@H](C=O)NC(=O)[C@H](CC1CCCCC1)NC(=O)OCc1cccc(Cl)c1)C(=O)N2 (stereo partly drawn) [Compound C178, 3-Chlorobenzyl ((2S)-3-cyclohexyl-1-(((2S)-1-(8-(methylsulfonyl)-2-oxo-1,8-diazaspiro[4.5]decan-3-yl)-3-oxopropan-2-yl)amino)-1-oxopropan-2-yl)carbamate] | 71 |
| COc1cccc2[nH]c(C(=O)N[C@@H](CC3CCCCC3)C(=O)NC(C=O)CC3CC4(CCOCC4)NC3=O)cc12 (stereo partly drawn) [Compound C179, N-((2S)-3-cyclohexyl-1-oxo-1-((1-oxo-3-(2-oxo-8-oxa-1-azaspiro[4.5]decan-3-yl)propan-2-yl)amino)propan-2-yl)-4-methoxy-1H-indole-2-carboxamide] | 0.015 |
| CC1(C)CC(CC(C=O)NC(=O)[C@H](CC2CCCCC2)NC(=O)OC(Cc2cccc(Cl)c2)c2ccccc2)C(=O)N1 (stereo partly drawn) [Compound C180, 2-(3-Chlorophenyl)-1-phenylethyl ((2S)-3-cyclohexyl-1-((1-(5,5-dimethyl-2-oxopyrrolidin-3-yl)-3-oxopropan-2-yl)amino)-1-oxopropan-2-yl) carbamate] | 56.6 |
| CC(C)(c1cccc(Cl)c1)[C@@H](OC(=O)N[C@@H](CC1CCCCC1)C(=O)N[C@@H](C[C@@H]1CCNC1=O)C(=O)C(N)=O)c1cccc(F)c1 [Compound C182] | 2470 |
| CC(C)(c1cccc(Cl)c1)[C@H](OC(=O)N[C@@H](CC1CCCCC1)C(=O)N[C@@H](C[C@@H]1CCNC1=O)C(=O)C(N)=O)c1cccc(F)c1 [Compound C183] | 249 |
| CC(C)(c1cccc(Cl)c1)[C@@H](OC(=O)N[C@@H](CC1CCCCC1)C(=O)N[C@@H](C[C@@H]1CCNC1=O)C(=O)C(=O)NC1CC1)c1cccc(F)c1 [Compound C184, (S)-2-(3-chlorophenyl)-1-(3-fluorophenyl)-2-methylpropyl ((S)-3-cyclohexyl-1-(((S)-4-(cyclopropylamino)-3,4-dioxo-1-((S)-2-oxopyrrolidin-3-yl)butan-2-yl)amino)-1-oxopropan-2-yl)carbamate] | 2320 |
| CC(C)(c1cccc(Cl)c1)[C@H](OC(=O)N[C@@H](CC1CCCCC1)C(=O)N[C@@H](C[C@@H]1CCNC1=O)C(=O)C(=O)NC1CC1)c1cccc(F)c1 [Compound C185, (R)-2-(3-chlorophenyl)-1-(3-fluorophenyl)-2-methylpropyl ((S)-3-cyclohexyl-1-(((S)-4-(cyclopropylamino)-3,4-dioxo-1-((S)-2-oxopyrrolidin-3-yl)butan-2-yl)amino)-1-oxopropan-2-yl)carbamate] | 143 |
| CC(C)(c1cccc(Cl)c1)C(OC(=O)N[C@@H](CC1CCCCC1)C(=O)N[C@@H](C[C@@H]1CCNC1=O)C(=O)C(=O)NC1CC1)c1ccccc1Cl (stereo partly drawn) [Compound C186, 1-(2-Chlorophenyl)-2-(3-chlorophenyl)-2-methylpropyl ((S)-3-cyclohexyl-1-(((S)-4-(cyclopropylamino)-3,4-dioxo-1-((S)-2-oxopyrrolidin-3-yl)butan-2-yl)amino)-1-oxopropan-2-yl) carbamate] | 1240 |
| CC(C)C[C@H](NC(=O)OC(c1cccc(Cl)c1)C1(c2cccc(Cl)c2)CC1)C(=O)N[C@@H](C[C@@H]1CCNC1=O)C(=O)C(=O)NC1CC1 (stereo partly drawn) [Compound C187, (3-chlorophenyl)(1-(3-chlorophenyl)cyclopropyl)methyl ((S)-1-(((S)-4-(cyclopropylamino)-3,4-dioxo-1-((S)-2-oxopyrrolidin-3-yl)butan-2-yl)amino)-4-methyl-1-oxopentan-2-yl)carbamate] | 109 |
| CC(C)(C)C(=O)N1CCC2(CC1)CC(CC(NC(=O)[C@H](CC1CCCCC1)NC(=O)OCc1cccc(Cl)c1)C(=O)C(=O)NC1CC1)C(=O)N2 (stereo partly drawn) [Compound C188, 3-Chlorobenzyl ((2S)-3-cyclohexyl-1-((4-(cyclopropylamino)-3,4-dioxo-1-(2-oxo-8-pivaloyl-1,8-diazaspiro[4.5]decan-3-yl)butan-2-yl)amino)-1-oxopropan-2-yl)carbamate] | 1890 |
| CS(=O)(=O)N1CCC2(CC1)CC(CC(C=O)NC(=O)[C@H](CC1CCCCC1)NC(=O)OC1CCCC1Cc1cccc(Cl)c1)C(=O)N2 (stereo partly drawn) [Compound C189, 2-(3-Chlorobenzyl)cyclopentyl ((2S)-3-cyclohexyl-1-((1-(8-(methylsulfonyl)-2-oxo-1,8-diazaspiro[4.5]decan-3-yl)-3-oxopropan-2-yl)amino)-1-oxopropan-2-yl)carbamate] | 340 |
| COc1cccc2[nH]c(C(=O)N[C@@H](CC3CCCCC3)C(=O)NC(CC3CC4(CCOCC4)NC3=O)C(=O)C(=O)NC3CC3)cc12 (stereo partly drawn) [Compound C191, N-((2S)-3-Cyclohexyl-1-((4-(cyclopropylamino)-3,4-dioxo-1-(2-oxo-8-oxa-1-azaspiro[4.5]decan-3-yl)butan-2-yl)amino)-1-oxopropan-2-yl)-4-methoxy-1H-indole-2-carboxamide] | 305 |
| O=C(N[C@@H](CC1CCCCC1)C(=O)NC(CC1CC2(CCCCC2)NC1=O)C(=O)C(=O)NC1CC1)OC1CCCC1Cc1cccc(Cl)c1 (stereo partly drawn) [Compound C192, 2-(3-Chlorobenzyl)cyclopentyl ((2S)-3-cyclohexyl-1-((4-(cyclopropylamino)-3,4-dioxo-1-(2-oxo-1-azaspiro[4.5]decan-3-yl)butan-2-yl)amino)-1-oxopropan-2-yl)carbamate] | 617 |
| COc1cccc2[nH]c(C(=O)N[C@@H](CC3CCCCC3)C(=O)NC(C=O)CC3CC4(CCCCC4)NC3=O)cc12 (stereo partly drawn) [Compound C193, N-((2S)-3-Cyclohexyl-1-oxo-1-((1-oxo-3-(2-oxo-1-azaspiro[4.5]decan-3-yl)propan-2-yl)amino)propan-2-yl)-4-methoxy-1H-indole-2-carboxamide] | 0.7 |
| CC(C)C[C@H](NC(=O)OC1(Cc2ccccc2)CCC1)C(=O)N[C@@H](C[C@@H]1CCNC1=O)C(=O)CCl [Compound C194, 1-Benzylcyclobutyl ((S)-1-(((S)-4-chloro-3-oxo-1-((S)-2-oxopyrrolidin-3-yl)butan-2-yl)amino)-4-methyl-1-oxopentan-2-yl) carbamate] | 485 |
| O=C(N[C@@H](CC1CCCCC1)C(=O)NC(CC1CC2(CCCCC2)NC1=O)C(=O)C(=O)NC1CC1)OC(Cc1cccc(Cl)c1)c1cccc(Cl)c1 (stereo partly drawn) [Compound C195, 1,2-Bis(3-chlorophenyl)ethyl ((2S)-3-cyclohexyl-1-((4-(cyclopropylamino)-3,4-dioxo-1-(2-oxo-1-azaspiro[4.5]decan-3-yl)butan-2-yl)amino)-1-oxopropan-2-yl)carbamate] | 2010 |
| CC(C)C[C@H](NC(=O)OC1CCCC1Cc1cccc(Cl)c1)C(=O)N[C@@H](C[C@@H]1CCNC1=O)C(=O)C(=O)NC1CC1 (stereo partly drawn) [Compound C196, 2-(3-Chlorobenzyl)cyclopentyl ((S)-1-(((S)-4-(cyclopropylamino)-3,4-dioxo-1-((S)-2-oxopyrrolidin-3-yl)butan-2-yl)amino)-4-methyl-1-oxopentan-2-yl)carbamate] | 108 |
| O=C(N[C@@H](CC1CCCCC1)C(=O)N[C@@H](CC1CC2(CCCCC2)NC1=O)C(=O)CCl)OCc1cccc(Cl)c1 (stereo partly drawn) [Compound C197, 3-Chlorobenzyl ((2S)-1-(((2S)-4-chloro-3-oxo-1-(2-oxo-1-azaspiro[4.5]decan-3-yl)butan-2-yl)amino)-3-cyclohexyl-1-oxopropan-2-yl)carbamate] | 620 |
| CC1(C)CC(CC(C=O)NC(=O)[C@H](CC2CCCCC2)NC(=O)OCc2cccc(Cl)c2)C(=O)N1 (stereo partly drawn) [Compound C198, 3-chlorobenzyl ((2S)-3-cyclohexyl-1-((1-(5,5-dimethyl-2-oxopyrrolidin-3-yl)-3-oxopropan-2-yl)amino)-1-oxopropan-2-yl)carbamate] | 4.7 |
| O=C[C@H](CC1CC2(CCOCC2)NC1=O)NC(=O)[C@H](CC1CCCCC1)NC(=O)OCc1cccc(Cl)c1 (stereo partly drawn) [Compound C200, 3-Chlorobenzyl ((2S)-3-cyclohexyl-1-oxo-1-(((2S)-1-oxo-3-(2-oxo-8-oxa-1-azaspiro[4.5]decan-3-yl)propan-2-yl)amino)propan-2-yl)carbamate] | 0.65 |

Source: patent US20230159453A1 (COCRYSTAL PHARMA, INC., priority 2020, published 2023)
